The values that follow come from PMC5716993, “The interdomain flexible linker of the polypeptide GalNAc transferases dictates their long-range glycosylation preferences” (Nature Communications, 2017).

This experiment addresses T1, GalNAc-T2 (triple mutant, R438A-D444A-F447A) (Homo sapiens, UniProt Q10471, D444A/F447A/R438A).
T1 construct: the previous reported template pPICZαAgalnact2 (K75-Q571); made in house; host or cells: Pichia pastoris SMD1168 (pPICZαA)
The experiment can be described thus: Transferase assay / Michaelis-Menten kinetics of GalNAc-T2 triple mutant. The settings on record: for Vmax / Km: Triple Mutant (0.02 µM), pH 6.5 cacodylate, 37 °C, 0.25 mM UDP-[3H]-GalNAc, Michaelis-Menten fit, ± standard deviation; for Vmax: 10 mM MnCl2; for Catalytic efficiency (Vmax/Km): Triple Mutant, errors estimated from the largest percent error of Vmax or Km. It counts as biochemical. As for the experimental part:
Specific activity determinations: GalNAc-T glycosylation reactions against (glyco)peptides 1–3 were performed with 75 mM sodium cacodylate, pH 6.5, 1 mM 2-mercaptoethanol, 10 mM MnCl2, 0.25 mM [^3H]-radiolabeled UDP-GalNAc (~6 × 10^8 DPM/µmole, American Radiolabeled Chemicals Inc.), and 1.4 mM (~1.25 mg/ml) of (glyco)peptide (from 4 mM stock in 1 mM TRIS, pH ~7) and varying concentrations (0.01 to 0.5 µM) of transferase (determined by OD280), giving a final reaction volumes of 20 µl in 100 µl capped Eppendorf tubes. Reactions were incubated at 37 °C in a thermostated microplate shaker (Taitec Microincubator M-36) and quenched at the appropriate reaction time by the addition of 20 µl of 250 mM EDTA and placed on ice prior to final workup. Typically, for each transferase, glycosylation reactions were performed at the same time with all three (glyco)peptide substrates (including a no peptide control) using the same batch of transferase and the same UDP-[^3H]-GalNAc stock. Before performing time course experiments, the relative activity of each transferase was determined by trial and error against all three peptides to determine the optimal transferase concentration or incubation time that gave no more than 10% peptide glycosylation against the best substrate. Final time course experiments typically consisted of incubation times of 10, 20, and 30, or 30, 60, and 90 or 120 min (depending on activity) and were performed at least twice. Most transferases were also characterized at two different enzyme concentrations (0.01–0.03 and 0.2–0.5 µM) and the results combined. After quenching the reaction and diluting to 4 ml, free UDP and non-hydrolyzed UDP-GalNAc were removed by passage over a Dowex 1 × 8 anion exchange resin (~3 ml column). Total UDP-[^3H]-GalNAc utilization (transfer to peptide substrate and transfer to water, i.e, hydrolysis) was determined by difference after scintillation counting (Beckman LS5801 scintillation counter) 1/20 of the sample before and after passage over Dowex 1 × 8. The extent of [^3H]-GalNAc transfer to peptide and the extent of hydrolysis was determined by Sephadex G10 gel filtration analysis, typically for the longest reaction time point, as previously described. Example gel filtration chromatograms are given in Supplementary Fig. 12. Significant hydrolysis was only observed for GalNAc-T4, which was corrected for in determining its specific activity. Specific activity was obtained by calculating at each individual data time point (of the combined time course plots, Fig. 4b), an individual-specific activity, which was then averaged to obtain the overall average specific activity (and standard deviation). Specific activity is reported as nmol of glycopeptide product formed per min, per pmol of enzyme. Substrate activity ratios (i.e., substrate ratios 2/1, 3/1, and 3/2) were also obtained at each individual time point and averaged (with standard deviation). […] Note that the Microsoft Excel least squares fitting function LINEST was used to obtain the linear plots shown in Fig. 4b while fixing the y intercept to zero. Note that the specific activity calculated from the least square slope differed slightly (less than 10%) from that determined from the average of the individual time points.
Detailed enzyme kinetics on GalNAc-T4, GalNAc-T2, the GalNAc-T2 triple mutant and GalNAc-T2 chimera 3: Glycosylation reactions were performed as described above using a fixed enzyme concentration (0.06 µM for GalNAc-T4, and 0.02 µM for GalNAc-T2 and its linker constructs) with varying peptide concentrations (typically 45, 90, 180, 350, 700, 1400, and 2000 μM). Incubation times (10–90 min) were chosen such that no more than 30% of the UDP-GalNAc donor was depleted while typically giving less than 10% peptide glycosylation, after correction for UDP-GalNAc hydrolysis described above. Specific activities were obtained from one to two individual incubation time points performed in two–three separate experiments. […]

T1 sequence (Q10471 75-571 R438A/D444A/F447A): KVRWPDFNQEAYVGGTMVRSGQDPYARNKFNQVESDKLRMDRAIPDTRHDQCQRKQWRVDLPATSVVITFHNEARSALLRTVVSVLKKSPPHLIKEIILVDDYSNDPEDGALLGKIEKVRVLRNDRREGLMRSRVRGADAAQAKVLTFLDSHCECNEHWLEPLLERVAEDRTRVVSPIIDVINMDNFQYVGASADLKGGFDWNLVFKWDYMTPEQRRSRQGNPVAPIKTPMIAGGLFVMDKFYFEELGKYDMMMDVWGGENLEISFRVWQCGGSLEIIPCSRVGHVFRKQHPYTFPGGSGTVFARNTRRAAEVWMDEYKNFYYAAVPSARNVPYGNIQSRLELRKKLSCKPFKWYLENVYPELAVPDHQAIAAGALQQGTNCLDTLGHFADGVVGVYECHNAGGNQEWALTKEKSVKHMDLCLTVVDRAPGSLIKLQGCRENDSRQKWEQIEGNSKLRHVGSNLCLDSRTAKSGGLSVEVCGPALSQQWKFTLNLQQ

For orientation: Km means the substrate concentration at which the rate is half of its maximum. As to “AGAGTTPGPGAGAT*GA [Peptide 2, monoglycopeptide …*GA, T* denotes the Thr-O-GalNAc moiety]”, the Vmax is given as 1.80 ± 0.06 mM/(nmole*min), the Km is 400 ± 40 µM and the “Catalytic efficiency (Vmax/Km)” value was 4.54 ± 0.9 nmol/min. Further, the “change in kinetic parameters against monoglycopeptide 2” value (triple mutant, in words) was “decrease in Vmax and increase in Km”.

Turning to “GAT*GAGAGAGTTPGPG [Peptide 3, monoglycopeptide GAT*…, T* denotes the Thr-O-GalNAc moiety]”, the Vmax was 2.82 ± 0.10 mM/(nmole*min), the Km was found to be 570 ± 50 µM and the “Catalytic efficiency (Vmax/Km)” value is 4.94 ± 0.9 nmol/min.
